Columns and labels:
Format in all cases: in vivo, Sprague-Dawley male rats
aldehyde dehydrogenase = experiment: Hepatic aldehyde dehydrogenase activity in liver homogenate; details: liver homogenate supernatant, absorbance at 340 nm; groups of Test Example 3
Experimental: (§1) Sprague-Dawley male rats (Orientbio) were divided into groups of six which were then administered for 26 days with neither alcohol nor the extracts for the normal group, with alcohol but not with extracts for the control group, with alcohol and 1% by weight octacosanol, with alcohol and 1% by weight chia seeds, with alcohol and 0.5% by weight maca, and with alcohol and a mixture of 1% by weight chia seeds and 0.5% by weight maca, respectively. Typical feedstuff was fed, together with water, to the normal group and, together with 25% alcohol, to the control group while the feedstuff for the other groups contained the test substances as described above.
(§2) In order to investigate the effect of the composition of the present invention on alcoholysis enzymes, the rats of the test groups set in Test Example 3 were anesthetized with chloroform and subjected to ventrotomy to excise the liver. The liver tissue was homogenized in 10 volumes of 100 mM sodium phosphate buffer, pH 7.4, using a homogenizer and then disrupted with an ultrasonicator. Centrifugation at 700 G for […] removed nuclei and cell debris. After centrifugation at 9,000 G for 20 min, the supernatant was measured for hepatic alcohol dehydrogenase and aldehyde dehydrogenase activity. The protein concentration of the supernatant was determined using a BCA kit and used to normalize the amount of liver tissue between test groups. […]

[1] = system: high-density lipoproteins; experiment: High-density lipoprotein level in whole blood; details: 25% alcohol daily for 25 days, whole blood from the heart
Experimental: as §1
(§3) After the rats of the test groups set in Test Example 3 were administered with 25% alcohol every day for 25 days, blood samples were taken from the tail vein and measured for testosterone level using enzyme immunoassay (Roche, USA). The levels of testosterone and high-density lipoproteins in the whole blood taken from the heart were measured in Eone Reference Laboratory.
To investigate the effect of chia seeds and maca (extract), used as active ingredients in the composition of the present invention, on penile function, the levels of high-density lipoproteins were analyzed. […]

[2] = Blood alcohol concentration
Experimental: as §1
Blood alcohol concentrations were measured after the rats were administered 25% alcohol every day for 30 days. In this regard, blood samples were taken from the tail vein of the rats of the test groups set in Test Example 3 at 6 P.M. every five days, and blood alcohol concentrations were determined using an alcohol tester (Asia Commerce Co. Ltd., Model No. LION SD-400).
To investigate the effect of chia seeds and maca (extract), used as active ingredients in the composition of the present invention, on the degradation of blood alcohol, measurements of the blood alcohol concentration were analyzed. The blood alcohol concentration was 0% for the normal group and 0.06% for the control group. […]

alcohol dehydrogenase = experiment: Hepatic alcohol dehydrogenase activity in liver homogenate; details: liver homogenate supernatant, absorbance at 340 nm; groups of Test Example 3
Experimental: as §1, §2

[3] = Endurance test, weighted swimming in bath
Experimental: as §1
A swimming experiment was conducted in a transparent acryl bath (with a dimension of length 80 cm×width 50 cm×depth 90 cm) ⅔ filled with water maintained at 24° C. The Sprague-Dawley male rats (Orientbio) were allowed to freely swim with a weight equivalent to 8˜10% of their body weight suspended from the abdomen thereof. Measurements were made of the time it took for the rat to swim to a point at which the head was submerged for 10 sec or longer below the water surface (Hong, S. G., J. Kor. Food Sci. Nutr. 32(7), 1076 (2003)).
To investigate the effects of chia seeds and maca (extract), used as active ingredients in the composition of the present invention, on endurance, measurements of the swing time were analyzed. The swimming time was measured to be 306.33±6.21 sec for the normal group, but 147.16±21.71 sec for the control group, which was equivalent to about 46% of that of the normal group. In contrast, 352.66±34.69 sec was measured for the octacosanol-administered group, 355.66±34.62 sec for the chia seed-administered group, 476.00±45.56 sec for the maca-administered group, and 527.83±25.57 sec for the group co-administered with chia seeds and mace, which were increased by 2.4, 2.4, 3.2 and 3.5 times, compared to the control group. […]

[4] = Rotarod performance test for space perception and endurance
Experimental: as §1
The groups set in Test Example 3 were measured for space perception activity by the rotarod performance test which was conducted for 5 min for each rat with the cylinder (380×260×420 mm) of rotarod LE8300 (LETICA, SPAIN) rotating at a speed of 4 to 40 rpm. Cases in which the rats fell on the ground within 20 sec after starting were excluded from the measurement.
To investigate the effect of chia seeds and maca (extract), used as active ingredients in the composition of the present invention, on space perception and endurance, measurements of the rotarod performance test were analyzed. […] In contrast, the time was 98.16±11.35 sec for octacosanol-administered group, 151.50±5.08 sec for the chia seed-administered group, 215.33±13.14 sec for the maca-administered group and 240.66±39.30 sec for the group co-administered with chia seeds and maca, which were increased by 3, 5, 7, and 8 times, respectively, compared to the control group. As apparent from the data of the rotarod performance test, space perception and endurance were enhanced by octacosanol, chia seeds, maca, and a combination of chia seeds and maca, and most increased, inter alia, by the mixture of chia seeds and maca (FIG. 6, Table 2).

[5] = Locomotor activity, open field test
Experimental: as §1
The locomotor activities of the groups set in Test Example 3 were measured in an open field test chamber (38.0 cm×26.0 cm×42.0 cm; LETICA, SPAIN). Horizontal activity was recorded by an IR detector for 10 min To investigate the effects that chia seeds and maca (extract), used as active ingredients in the composition of the present invention, had on locomotor activity, measurements of the horizontal activity were analyzed. The horizontal activity was 1179.2±21.2 cm for the normal group, but […] for the control group, which was decreased by about 75% compared to the normal. […]

testosterone = experiment: Testosterone level in whole blood; details: 25% alcohol daily for 25 days, whole blood from the heart
Experimental: as §1, §3
To investigate the effect of chia seeds and maca (extract), used as active ingredients in the composition of the present invention, on testosterone activity, the levels of testosterone in whole blood were analyzed. […]

SMILES: CCCCCCCCCCCCCCCCCCCCCCCCCCCCO [octacosanol]
- aldehyde dehydrogenase activity (aldehyde dehydrogenase): 9.8±1.4 mmole/min/mg protein
- level of high-density lipoproteins [1]: 32.5 ± 1.5 mg/dL
- blood alcohol concentration ([2]; 25% alcohol daily for 30 days, tail vein blood, groups of Test Example 3): 0.034%
- decrease of blood alcohol concentration compared to the control group ([2]; vs alcohol control group): 55%
- alcohol dehydrogenase activity (alcohol dehydrogenase): 8.9±0.8 mmole/min/mg protein
- swimming time ([3]; 26 days, alcohol plus 1% octacosanol, 1% chia seeds, 0.5% maca or 1% chia seeds + 0.5% maca in feed, weight 8-10% of body weight): 352.66 ± 34.69 s
- swimming time ([3]; Table 1, endurance test with swimming in bath): 352.66 ± 34.69 s
- increase of swimming time compared to the control group ([3]; vs alcohol control group): 2.4 times
- time on rotarod ([4]; Table 2, rotarod performance test): 98.16 ± 11.35 s
- time that the rats stayed on the rotating cylinder ([4]; rotarod 4 to 40 rpm, 5 min, groups of Test Example 3): 98.16 ± 11.35 s
- increase of time on rotating cylinder compared to the control group ([4]; vs alcohol control group): 3 times
- horizontal activity ([5]; open field, IR detector, 10 min, groups of Test Example 3): 240.2±12.3 cm
- increase of horizontal activity compared to the control group ([5]; vs alcohol control group): 8 times
- level of testosterone in whole blood (testosterone): 195 ± 62.2 ng/dL
